Data on one compound can be found in patent US11124479B2, “Oligopyrroles as antagonists of islet amyloid polypeptide oligomerization” (New York University, priority 2017, dated 2021).

One data set can be described thus: Partition coefficient. It counts as physicochemical.
The target in the next data set is T1, Aβ42 (Homo sapiens, UniProt P05067).
T1 construct: purchased
Put plainly: ThT kinetic assay of Aβ42 fibrillation (specificity assay). It counts as biochemical. As to the method:
Kinetic assays were conducted on a FlexStation 3 Multi-Mode Microplate reader from Molecular Devices (Sunnyvale, Calif.). Experiments were conducted in triplicate in a 96-well plate with a final volume of 200 μL per well. Every measurement was an average of 50 readings. The aggregation of IAPP was initiated by its addition from a stock solution (1 mM in DMSO) to phosphate buffer. The stoichiometry ratio for ThT to IAPP was 0.5:1. Peptide aggregation was monitored by ThT fluorescence (λex=445 nm and λem=485 nm). The blank sample contained all the components of the peptide samples except peptide. The sample data were processed by subtracting the blank and renormalizing the fluorescence intensity by setting the maximum value to 1.
Kinetic assays in the presence of the compounds of the invention were conducted under the same conditions. Small molecules were added from a stock solution (1 mM or 10 mM in DMSO) to keep the final concentration of DMSO less than 1.0% (v/v). Small molecules were added to the wells with ThT and buffer and mixed gently with a pipette before adding IAPP. To keep the conditions identical, an equal amount of DMSO was added to the wells with IAPP only reactions. For the aggregation kinetics of Aβ42, the peptide was dissolved in 1N NaOH (0.5-1 mM) and vortexed for 2 min. to ensure the complete solubility. The aggregation of 3 μM Aβ42 was initiated by addition of peptide from a stock solution (in 1 N NaOH, 0.5-1 mM) to phosphate buffer.
Kinetic profiles were processed using Origin (version 9.1). Kinetic curves were fit using the built-in sigmoidal fit. Each run was fit independently to extract the t50 (time required to reach 50% of the maximum fluorescence intensity). Error bars represent standard deviations from the mean of at least three independent experiments.
To test the specificity of ADH-101 towards IAPP, the binding interaction of ADH-101 with Aβ peptide was investigated. […]

For data set [1], the target named is T2, islet amyloid polypeptide (IAPP) (Homo sapiens, UniProt P10997).
T2 construct: IAPP is a 37 residue neuropancreatic hormone peptide; purchased Anaspec (Fremont, Calif.)
T2 sequence (P10997 34-70 limits assumed): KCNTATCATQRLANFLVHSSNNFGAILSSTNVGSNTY
Put plainly: Seed-catalyzed ThT kinetic assay of IAPP aggregation. It counts as biochemical. The following applies: 15 μM IAPP; for relative t50 of seed catalyzed fibrillation: seed 5% v/v, lipid membrane DOPG:DOPC 3:7 750 μM; for factor of retardation of seed catalyzed aggregation kinetics: seed 10% v/v. As for the experimental part:
Seeds of IAPP were prepared by incubating 100 μM of IAPP in phosphate buffer at room temperature and aged for 24 hours. The formation of fibers was confirmed by TEM and ThT stain before storage at −20° C. until use. For the seed catalyzed aggregation kinetics of IAPP, 10% (based on the monomeric IAPP, v/v) seeds were added with ThT in phosphate buffer to the 96-well plate. The aggregation was initiated by the addition of fresh IAPP followed by gentle mixing. Kinetic assays in the presence of the compounds of the invention were conducted under the same conditions except that the compounds were added from a stock solution (1 mM or 10 mM in DMSO) to keep the final concentration of DMSO less than 1.0% (v/v).
The effect of ADH-101 on preformed IAPP oligomers has been investigated. ADH-101 was added during the lag phase of IAPP amyloid kinetics at 1 h and 3 h at an equimolar ratio (IAPP:ADH-101, 1:1, 10 μM IAPP). […] Additionally, ADH-101 has no effect on IAPP amyloid fibers. No change in ThT fluorescence intensity was observed when ADH-101 added to the fibers (FIG. 4, black arrow). […] The kinetics of IAPP fibrillation is dominated by the secondary nucleation which is reflected in the disappearance of the lag phase (FIG. 13). The t50 for the seed catalyzed (5%, v/v) aggregation kinetics of 15 μM IAPP (lipid membrane, DOPG:DOPC, 3:7, 750 μM) is 0.55±0.13 h which is […] faster than the de novo conditions (t50=1.55±0.20 h, FIGS. 13A and 13B). ADH-101 delays the seed catalyzed fibrillation by a relative t50 that is 1.8 fold and 2.6 fold at stoichiometric ratios of 1:1 and 2:1 (ADH-101:IAPP), respectively (FIGS. 13A and 13B). The t50 for the seed catalyzed (10%, v/v) aggregation of 15 μM IAPP is 0.86±0.19 h, which is ˜10 fold faster than the de novo conditions (t50=8.7±0.8 h, FIGS. 13C and 13D). ADH-101 retards the seed catalyzed aggregation kinetics of IAPP by factors of 1.4, 5.4, and 7.1 at stoichiometric ratios of 1:0.1, 1:0.5, and 1:1 (IAPP:ADH-101), respectively (FIGS. 13C and 13D). It is postulated that ADH-101 modulates IAPP conformation and attenuates its ability for oligomerization and fibrillation.

Data set [2] deals with T2, islet amyloid polypeptide (IAPP). Nature of the data set: ThT-based kinetic assay of IAPP fibrillation. It counts as biochemical.

A word on the logP: it is a log measure of how a compound divides between an organic and an aqueous phase. A lower logP goes with a more hydrophilic compound.

Structures are written as SMILES.

T1 sequence (P05067 672-713 limits assumed): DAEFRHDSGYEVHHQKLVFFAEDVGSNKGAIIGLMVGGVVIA

Consider `CCOC(=O)c1cc(NC(=O)c2cc(NC(=O)c3cc([N+](=O)[O-])cn3CC(C)C)cn2CC(C)C)cn1CCC(=O)O` [ADH-101], for which, in the data set “Partition coefficient”, the logP came out at 2.2. Moreover, on Aβ42, the “effect on Aβ42 fibrillation (in words)” value is recorded as “weak agonist”. Further, the “relative t50 for Aβ42 amyloid fiber formation” value at Aβ42 (3 μM Aβ42, equimolar ratio) is recorded as 0.8 fold. Also, the “t50 for the amyloid kinetics of Aβ42 in the presence of compound” value on Aβ42 (3 μM Aβ42, equimolar ratio, Aβ42 alone 4.22±0.51 h) worked out at 3.41 ± 0.32 h. The results for the “relative t50 of seed catalyzed fibrillation” value in data set [1] (ratio 1:1 (ADH-101:IAPP)) and in data set [1] (ratio 2:1 (ADH-101:IAPP)) were 1.8 fold and 2.6 fold, respectively. Moreover, the “factor of retardation of seed catalyzed aggregation kinetics” value was 1.4 in data set [1] (ratio 1:0.1 (IAPP:ADH-101)), 5.4 in data set [1] (ratio 1:0.5 (IAPP:ADH-101)) and 7.1 in data set [1] (ratio 1:1 (IAPP:ADH-101)). Besides, the “inhibition of IAPP fibrillation when added during the lag phase, compared to premixed (t=0 h)” value in data set [2] (added at 1 h and 3 h, equimolar ratio, 10 μM IAPP) is “equally effective”. The “effect on IAPP amyloid fibers (ThT fluorescence)” value in data set [2] (added to the fibers) was “no effect”. In addition, the “factor of delay of IAPP amyloid kinetics” value in data set [2] (cholesterol-containing LUVs (30% cholesterol), 15 μM IAPP, equimolar ratio) stood at 3.6.
